Tests used:
[1] = tested on: phosphorylation of MEK and ERK in the MAPK pathway; experiment: MEK and ERK phosphorylation in cancer cell lines; assay type: cell-based; conditions: BRAF- or RAS-mutant melanoma, NSCLC, and CRC cell lines
[2] = tested on: BRAF- or RAS-mutant melanoma, NSCLC, CRC, and thyroid cancer cell lines; experiment: growth of cancer cell lines in vitro; assay type: cell-based
[3] = tested on: BRAF- and NRAS-mutant melanoma, KRAS mutant NSCLC, BRAF mutant CRC xenografts; experiment: mouse xenograft models, monotherapy; assay type: in vivo
Description: The in vitro antitumor effects of belvarafenib have translated into efficacy in various mouse xenograft models.

[4] = Phase I relative bioavailability and food effect study in healthy subjects; assay type: in vivo; conditions: 200 mg single dose
Protocol: In another Phase I, single dose, randomized, crossover relative bioavailability and food effect study in healthy subjects, the influence of a formulation change from the Phase I to Phase II tablet on belvarafenib exposure was evaluated. A total of 18 healthy subjects were enrolled in the study and received the following randomized treatments: one 150-mg and one 50-mg Phase I tablet in a fed state, two 100-mg Phase II tablets in a fed state, or two 100-mg Phase II tablets in a fasted state, with a 18-day washout between treatments.

[5] = tested on: K1735 melanoma cells carrying the NRASG13D mutation; experiment: K1735 syngeneic mouse model, tumor growth; assay type: in vivo
Description: Example 1 evaluated the efficacy of belvarafenib monotherapy, atezolizumab monotherapy, a combination therapy of belvarafenib and atezolizumab in a mutant K1735 subcutaneous mouse model.
The mouse strain was C3H/HeNCrlOri which is widely used for the K1735 syngeneic model. The mice were supplied by Orient Bio Inc., Korea.
The cell line was K1735 and was supplied by the American Type Culture Collection (ATCC). The K1735 cells are melanoma cells carrying the NRASG13D mutation. The cell culture in vitro media was Roswell Park Memorial Institute (RPMI) 10% fetal bovine serum (FBS) and incubation was at 5% C02 and 37° C. For the K1735 syngeneic model, cancer cells (1.5×10^8 cells/10 mL) were mixed with Hank's balanced salt solution (HBSS) and injected subcutaneously at 0.1 mL/head. Seven animals per group were treated with the vehicle (control), belvarafenib monotherapy at 7.5 mg/kg, belvarafenib monotherapy at 15 mg/kg, atezolizumab monotherapy at 10 mg/kg, belvarafenib (7.5 mg/kg) and atezolizumab (10 mg/kg) combination therapy, and belvarafenib (15 mg/kg) and atezolizumab (10 mg/kg) combination therapy. The experiment was done using 1st generation tumor tissue.
Belvarafenib dihydrochloride, 99.6% purity, that was stored at room temperature was used. Dosing was based on active ingredient free base and was corrected for assay and water content. The dosing vehicle was DMSO (5%), cremophore EL (5%), and deionized water (90%). Belvarafenib for dosing was dissolved in the vehicle. Belvarafenib oral doses of 7.5 mg/kg and 15 mg/kg were evaluated as monotherapies and in combination with atezolizumab. Belvarafenib was dose daily for 21 days.
Atezolizumab (TECENTRIQ©) that was stored at 2-8° C. was used. The dosing vehicle was saline and the dosing concentration was 5 mL/kg. An atezolizumab intravenous dose of 10 mg/kg was evaluated as a monotherapy and in combination with 7.5 mg/kg and 15 mg/kg belvarafenib. Atezolizumab was dosed three times a week for 3 weeks.
Tumor size. Tumor size was assessed by digital caliper (MITUTOYO CD-15CPX, MonotaRO Singapore, Japan) twice a week during the dosing period and calculated using the formula for an ellipsoid sphere (V=L×S2/2=mm3, where L=long diameter, and S=short diameter). Tumor size was recorded on the day of the body weight measurement and data was recorded on a tumor volume record sheet.
Relative tumor volume (RTV). RTV(%)=tumor volume/initial tumor volume×100.
Tumor Growth (TG). TG (%)=RTVdayx/RTVday0×100.
Relative tumor growth (RTG). The ratio of mean tumor volume on last measurement day to the mean tumor volume on Day 0.
Inhibition rate (IR). Inhibition of tumor growth was calculated relative to vehicle-treated controls. IR (%)=(1−mean relative tumor weight in treated group/mean relative tumor weight in control group)×100.
Maximum inhibition rate (MIR). MIR was the highest recorded IR (%) among the measured inhibition rate (%).
Statistical analysis of tumor size was performed with GraphPad Prism version 6 (GraphPad software, Inc., USA). Values were expressed as S.E.M. The significance of differences among multiple groups was assessed using a 2-way ANOVA. Post hoc pairwise comparison between groups was tested for significance using Dennett's method.

[6] = K1735 syngeneic mouse model, body weight and clinical signs; assay type: in vivo
Protocol: Body weight. Body weight measurement was performed twice a week during the dosing period.
Relative body weight. Relative body weight (%)=body weight (g)/initial body weight (g)×100.
Maximum weight loss (MWL). MWL was the highest recorded weight loss (%) among the measured weight loss (%).

[7] = tested on: tumor infiltrated CD3+CD8+ T cells; experiment: flow cytometry of tumor infiltrated CD3+CD8+ T cells, K1735 model; assay type: in vivo, mouse; conditions: belvarafenib 15 mg/kg oral QDx21; tumor tissue at end of experiment
Protocol: Flow cytometry was used for tumor infiltrated CD3+CD8+ T cells analysis using BD FACSCanto™ IL (BD Biosciences) and FlowJo™ v 10.6.2 software (BD Biosciences). At the end of the experiment, tumor tissue, excluding mono and combination therapy groups using belvarafenib 7.5 mg/kg, were collected for evaluation of pharmacodynamics. Tumors were surgically dissected, washed twice with phosphate-buffered saline (PBS), and then chopped into 1 mm3 pieces. The chopped tumor pieces were digested in 7 mL of dissociation medium (RPMI medium with 10% FBS, collagenase type II at 2 mg/mL, collagenase type IV at 2 mg/mL, and DNase I at 1 mg/mL) for 30 minutes at 37° C., and filtered through a 70 μm cell strainer (BD Pharm, USA). The filtered cells were then washed twice with PBS. Remaining red blood cells were lysed using ammonium-chloride-potassium (ACK) solution. The cells, which had dissociated into single cells, were stained with Fe block (anti CD16/32, Ref. 14-0161-82, Invitrogen, USA) at 4° C. for 15 minutes to prevent nonspecific antibody binding. The cells were then stained with appropriate antibodies at 4° C. for 30 minutes. To assess the presence of CD3+CD8+ T cell population, cells were stained with PE Cy7-conjugated anti-CD3e (1:100 dilution) (clone: 145-2C11, Invitrogen, USA) and FITC-conjugated anti-CD8a (1:100 dilution) (clone: 53-6.7, Invitrogen, USA).

[8] = belvarafenib 7.5 mg/kg oral QDx21
[9] = belvarafenib 15 mg/kg oral QDx21

Cc1ccc2c(Nc3cccc(Cl)c3F)nccc2c1NC(=O)c1csc2c(N)ncnc12 [Belvarafenib, 4-amino-N-(1-((3-chloro-2-fluorophenyl)amino)-6-methylisoquinolin-5-yl)thieno[3,2-d]pyrimidine-7-carboxamide]
inhibition of phosphorylation of MEK and ERK [1]: inhibits phosphorylation of MEK and ERK
inhibition of cell line growth [2]: inhibit the growth
inhibition of tumor growth [3]: dose-dependent inhibition of tumor growth
serious adverse events, adverse events of special interest, deaths [4]: No serious adverse events, adverse events of special interest, or deaths were reported
MIR / Max Inhib. (maximum inhibition rate) [5, 8]: 48.2%
MTV21 (mean tumor volume on day 21 of treatment) [5, 8]: 2014.8 mm^3
RTG (relative tumor growth) [5, 8]: 12.2
MIR / Max Inhib. (maximum inhibition rate) [5, 9]: 54.7%
MTV21 (mean tumor volume on day 21 of treatment) [5, 9]: 1816.8 mm^3
RTG (relative tumor growth) [5, 9]: 11.0
IR (Day 21) (inhibition rate, tumor growth inhibition) [5, 8]: 48.2%
IR (Day 21) (inhibition rate, tumor growth inhibition) [5, 9]: 54.7%
MWL / Max Wt. (maximum weight loss) [6, 8]: 2.8%
MWL / Max Wt. (maximum weight loss) [6, 9]: 2.2%
CD3^+CD8^+ T cells (%) [7]: 1.27%
